# BindingDB's records for doi:10.1016/s0960-894x(01)00573-x (Pfizer, 2001)
# Molecular target: T1, Caspase-1 (Homo sapiens, UniProt P29466)
# T1 sequence (P29466 whole entry): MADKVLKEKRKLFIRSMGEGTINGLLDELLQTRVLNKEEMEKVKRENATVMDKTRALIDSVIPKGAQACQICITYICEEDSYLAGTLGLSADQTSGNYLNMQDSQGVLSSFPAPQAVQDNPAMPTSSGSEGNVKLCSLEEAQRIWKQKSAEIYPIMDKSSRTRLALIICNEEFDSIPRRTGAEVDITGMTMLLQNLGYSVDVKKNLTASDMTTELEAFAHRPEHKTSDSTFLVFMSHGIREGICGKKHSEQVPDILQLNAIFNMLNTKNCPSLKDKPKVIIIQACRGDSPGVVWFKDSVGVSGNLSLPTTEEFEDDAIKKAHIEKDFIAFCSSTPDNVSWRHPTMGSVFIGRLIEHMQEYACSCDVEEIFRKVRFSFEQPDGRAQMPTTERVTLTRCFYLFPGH
# Assay: Caspase Inhibition Assay
# Settings: pH 7; 37 °C
# Description: The substrate peptides terminating in AMC are processed by caspases with or without inhibitors, and the accumulation of AMC was assessed with a Cytofluor fluorescent plate reader at excitation and emission wavelengths of 380 and 460 nm. Compounds were tested, and full IC50 curves were run for all compounds expressing measurable inhibitory activity.
row,Ki,Structure (SMILES)
1,4200 nM,O=C[C@H](CC(=O)O)NS(=O)(=O)c1ccccc1Oc1ccc(-c2ccc(C(=O)O)cc2)cc1 [4-[4-(2-{[(2S)-1-carboxy-3-oxopropan-2-yl]sulfamoyl}phenoxy)phenyl]benzoic acid]
2,110 nM,Cc1cc(Oc2ccccc2S(=O)(=O)N[C@H](C=O)CC(=O)O)ccc1C(C)C [(3S)-3-({2-[3-methyl-4-(propan-2-yl)phenoxy]benzene}sulfonamido)-4-oxobutanoic acid]
3,100 nM,CCC(C)c1ccc(Oc2ccccc2S(=O)(=O)N[C@H](C=O)CC(=O)O)cc1C (stereo partly drawn) [(3S)-3-({2-[4-(butan-2-yl)-3-methylphenoxy]benzene}sulfonamido)-4-oxobutanoic acid]
4,490 nM,CCC(C)c1ccc(Oc2ccccc2S(=O)(=O)N[C@H](C=O)CC(=O)O)cc1 (stereo partly drawn) [(3S)-3-({2-[4-(butan-2-yl)phenoxy]benzene}sulfonamido)-4-oxobutanoic acid]
5,1000 nM,"Cc1cccc(Oc2ccccc2S(=O)(=O)N[C@H](C=O)CC(=O)O)c1C [(3S)-3-{[2-(2,3-dimethylphenoxy)benzene]sulfonamido}-4-oxobutanoic acid]"
6,3000 nM,Cc1ccccc1Oc1ccccc1S(=O)(=O)N[C@H](C=O)CC(=O)O [(3S)-3-{[2-(2-methylphenoxy)benzene]sulfonamido}-4-oxobutanoic acid]
7,430 nM,Cc1cccc(Oc2ccccc2S(=O)(=O)N[C@H](C=O)CC(=O)O)c1 [(3S)-3-{[2-(3-methylphenoxy)benzene]sulfonamido}-4-oxobutanoic acid]
8,900 nM,O=C[C@H](CC(=O)O)NS(=O)(=O)c1ccccc1Oc1ccc(C2CCCCC2)cc1 [(3S)-3-{[2-(4-cyclohexylphenoxy)benzene]sulfonamido}-4-oxobutanoic acid]
9,880 nM,O=C[C@H](CC(=O)O)NS(=O)(=O)c1ccccc1Oc1ccc(C2CCCC2)cc1 [(3S)-3-{[2-(4-cyclopentylphenoxy)benzene]sulfonamido}-4-oxobutanoic acid]
10,1100 nM,Cc1ccc(Oc2ccccc2S(=O)(=O)N[C@H](C=O)CC(=O)O)cc1 [(3S)-3-{[2-(4-methylphenoxy)benzene]sulfonamido}-4-oxobutanoic acid]
11,440 nM,CCC(CC)c1ccc(Oc2ccccc2S(=O)(=O)N[C@H](C=O)CC(=O)O)cc1 [(3S)-4-oxo-3-({2-[4-(pentan-3-yl)phenoxy]benzene}sulfonamido)butanoic acid]
12,620 nM,CC(C)c1ccc(Oc2ccccc2S(=O)(=O)N[C@H](C=O)CC(=O)O)cc1 [(3S)-4-oxo-3-({2-[4-(propan-2-yl)phenoxy]benzene}sulfonamido)butanoic acid]
13,2400 nM,O=C[C@H](CC(=O)O)NS(=O)(=O)c1ccccc1Oc1ccccc1 [(3S)-4-oxo-3-[(2-phenoxybenzene)sulfonamido]butanoic acid]
14,450 nM,"Cc1cc(Oc2ccccc2S(=O)(=O)N[C@H](C=O)CC(=O)O)cc(C)c1C [(3S)-4-oxo-3-{[2-(3,4,5-trimethylphenoxy)benzene]sulfonamido}butanoic acid]"
15,290 nM,O=C[C@H](CC(=O)O)NS(=O)(=O)c1ccccc1Oc1ccc(-c2ccccc2)cc1 [(3S)-4-oxo-3-{[2-(4-phenylphenoxy)benzene]sulfonamido}butanoic acid]
